Here are results for 3 molecules from ChEMBL document CHEMBL3046781, “Resistance of Helicoverpa assulta (Guenée) (Lepidoptera: Noctuidae) to fenvalerate, phoxim and methomyl in China” (2009).

Each structure is given as a SMILES string.

Common to all, as to assay type: functional
Experiment [1] relates to Helicoverpa assulta. As to the kind of experiment: Resistance factor, ratio of LD50 for sixth-instar larvae of Helicoverpa assulta HN1 to LD50 for sixth-instar larvae of Helicoverpa assulta at 1.8 to 183360 mg/l.
For experiment [2], the system named is Helicoverpa assulta. As to the kind of experiment: Resistance factor, ratio of LD50 for sixth-instar larvae of Helicoverpa assulta AH2 to LD50 for sixth-instar larvae of Helicoverpa assulta at 1.8 to 183360 mg/l.
In experiment [3] the test system is Helicoverpa assulta. Description: Resistance factor, ratio of LD50 for sixth-instar larvae of Helicoverpa assulta YN4 to LD50 for sixth-instar larvae of Helicoverpa assulta at 1.8 to 183360 mg/l.
The subject of experiment [4] is Helicoverpa assulta. As to the kind of experiment: Resistance factor, ratio of LD50 for sixth-instar larvae of Helicoverpa assulta HN2 to LD50 for sixth-instar larvae of Helicoverpa assulta at 1.8 to 183360 mg/l.
In experiment [5] the test system is Helicoverpa assulta. As to the kind of experiment: Resistance factor, ratio of LD50 for sixth-instar larvae of Helicoverpa assulta YN1 to LD50 for sixth-instar larvae of Helicoverpa assulta at 1.8 to 183360 mg/l.
Experiment [6] deals with Helicoverpa assulta. As to the kind of experiment: Insecticidal activity against sixth-instar larvae of Helicoverpa assulta HB2 at 1.8 to 183360 mg/l after 48 hr by chi-squared analysis.
Experiment [7] relates to Helicoverpa assulta. As to the kind of experiment: Resistance factor, ratio of LD50 for sixth-instar larvae of Helicoverpa assulta YN2 to LD50 for sixth-instar larvae of Helicoverpa assulta at 1.8 to 183360 mg/l.
Experiment [8] concerns Helicoverpa assulta. Description: Resistance factor, ratio of LD50 for sixth-instar larvae of Helicoverpa assulta AH1 to LD50 for sixth-instar larvae of Helicoverpa assulta at 1.8 to 183360 mg/l.
The subject of experiment [9] is Helicoverpa assulta. Description: Insecticidal activity against sixth-instar larvae of Helicoverpa assulta YN3 at 1.8 to 183360 mg/l after 48 hr by chi-squared analysis.
Experiment [10] relates to Helicoverpa assulta. As to the kind of experiment: Insecticidal activity against sixth-instar larvae of Helicoverpa assulta SD2 at 1.8 to 183360 mg/l after 48 hr by chi-squared analysis.
For experiment [11], the system named is Helicoverpa assulta. Description: Insecticidal activity against sixth-instar larvae of Helicoverpa assulta YN2 at 1.8 to 183360 mg/l after 48 hr by chi-squared analysis.
For experiment [12], the system named is Helicoverpa assulta. Description: Resistance factor, ratio of LD50 for sixth-instar larvae of Helicoverpa assulta GZ1 to LD50 for sixth-instar larvae of Helicoverpa assulta at 21 to 3390 mg/l.
Experiment [13] deals with Helicoverpa assulta. As to the kind of experiment: Resistance factor, ratio of LD50 for sixth-instar larvae of Helicoverpa assulta GZ2 to LD50 for sixth-instar larvae of Helicoverpa assulta at 21 to 3390 mg/l.
In experiment [14] the test system is Helicoverpa assulta. Description: Resistance factor, ratio of LD50 for sixth-instar larvae of Helicoverpa assulta AH1 to LD50 for sixth-instar larvae of Helicoverpa assulta at 21 to 3390 mg/l.
Experiment [15] concerns Helicoverpa assulta. As to the kind of experiment: Insecticidal activity against sixth-instar larvae of Helicoverpa assulta GZ4 at 21 to 3390 mg/l after 48 hr by chi-squared analysis.
Experiment [16] deals with Helicoverpa assulta. Description: Resistance factor, ratio of LD50 for sixth-instar larvae of Helicoverpa assulta SD1 to LD50 for sixth-instar larvae of Helicoverpa assulta at 21 to 3390 mg/l.
In experiment [17] the test system is Helicoverpa assulta. As to the kind of experiment: Resistance factor, ratio of LD50 for sixth-instar larvae of Helicoverpa assulta HN2 to LD50 for sixth-instar larvae of Helicoverpa assulta at 21 to 3390 mg/l.
The subject of experiment [18] is Helicoverpa assulta. Description: Insecticidal activity against sixth-instar larvae of Helicoverpa assulta YN2 at 21 to 3390 mg/l after 48 hr by chi-squared analysis.
Experiment [19] concerns Helicoverpa assulta. As to the kind of experiment: Insecticidal activity against sixth-instar larvae of Helicoverpa assulta YN8 at 21 to 3390 mg/l after 48 hr by chi-squared analysis.
Experiment [20] relates to Helicoverpa assulta. As to the kind of experiment: Resistance factor, ratio of LD50 for sixth-instar larvae of Helicoverpa assulta GZ3 to LD50 for sixth-instar larvae of Helicoverpa assulta at 21 to 3390 mg/l.
For experiment [21], the system named is Helicoverpa assulta. As to the kind of experiment: Resistance factor, ratio of LD50 for sixth-instar larvae of Helicoverpa assulta YN5 to LD50 for sixth-instar larvae of Helicoverpa assulta at 21 to 3390 mg/l.
The test system of experiment [22] is Helicoverpa assulta. Description: Insecticidal activity against sixth-instar larvae of Helicoverpa assulta AH1 at 21 to 3390 mg/l after 48 hr by chi-squared analysis.
The test system of experiment [23] is Helicoverpa assulta. As to the kind of experiment: Insecticidal activity against sixth-instar larvae of Helicoverpa assulta YN7 at 21 to 3390 mg/l after 48 hr by chi-squared analysis.
Experiment [24] relates to Helicoverpa assulta. As to the kind of experiment: Resistance factor, ratio of LD50 for sixth-instar larvae of Helicoverpa assulta YN6 to LD50 for sixth-instar larvae of Helicoverpa assulta at 21 to 3390 mg/l.
Experiment [25] relates to Helicoverpa assulta. As to the kind of experiment: Insecticidal activity against sixth-instar larvae of Helicoverpa assulta FJ3 at 21 to 3390 mg/l after 48 hr by chi-squared analysis.
For experiment [26], the system named is Helicoverpa assulta. Description: Insecticidal activity against sixth-instar larvae of Helicoverpa assulta YN6 at 39 to 12630 mg/l after 48 hr by chi-squared analysis.
The test system of experiment [27] is Helicoverpa assulta. As to the kind of experiment: Insecticidal activity against sixth-instar larvae of Helicoverpa assulta FJ2 at 39 to 12630 mg/l after 48 hr by chi-squared analysis.
For experiment [28], the system named is Helicoverpa assulta. As to the kind of experiment: Insecticidal activity against sixth-instar larvae of Helicoverpa assulta AH1 at 39 to 12630 mg/l after 48 hr by chi-squared analysis.
The subject of experiment [29] is Helicoverpa assulta. As to the kind of experiment: Resistance factor, ratio of LD50 for sixth-instar larvae of Helicoverpa assulta AH3 to LD50 for sixth-instar larvae of Helicoverpa assulta at 39 to 12630 mg/l.
Experiment [30] concerns Helicoverpa assulta. Description: Resistance factor, ratio of LD50 for sixth-instar larvae of Helicoverpa assulta FJ1 to LD50 for sixth-instar larvae of Helicoverpa assulta at 39 to 12630 mg/l.
Experiment [31] has as its system Helicoverpa assulta. As to the kind of experiment: Insecticidal activity against sixth-instar larvae of Helicoverpa assulta GZ3 at 39 to 12630 mg/l after 48 hr by chi-squared analysis.
The subject of experiment [32] is Helicoverpa assulta. As to the kind of experiment: Insecticidal activity against sixth-instar larvae of Helicoverpa assulta YN5 at 39 to 12630 mg/l after 48 hr by chi-squared analysis.
Experiment [33] has as its system Helicoverpa assulta. Description: Resistance factor, ratio of LD50 for sixth-instar larvae of Helicoverpa assulta YN2 to LD50 for sixth-instar larvae of Helicoverpa assulta at 39 to 12630 mg/l.
Experiment [34] deals with Helicoverpa assulta. As to the kind of experiment: Insecticidal activity against sixth-instar larvae of Helicoverpa assulta GZ4 at 39 to 12630 mg/l after 48 hr by chi-squared analysis.
For experiment [35], the system named is Helicoverpa assulta. As to the kind of experiment: Resistance factor, ratio of LD50 for sixth-instar larvae of Helicoverpa assulta HN2 to LD50 for sixth-instar larvae of Helicoverpa assulta at 39 to 12630 mg/l.

Consider `CC(C)C(C(=O)OC(C#N)c1cccc(Oc2ccccc2)c1)c1ccc(Cl)cc1` (stereo unspecified) [FENVALERATE], for which the Ratio was determined as 64.9 with Helicoverpa assulta [1]; 415 in the experiment with Helicoverpa assulta [2]; 9231 with Helicoverpa assulta [3]; 7.23 in the experiment with Helicoverpa assulta [4]; 8412 with Helicoverpa assulta [5]; 1313 in the experiment on Helicoverpa assulta [7]. Moreover, the Ratio in the experiment with Helicoverpa assulta [8] was 2054. The LD90 in the experiment with Helicoverpa assulta [6] turned out to be 18 µg/g; with Helicoverpa assulta [9], 388 µg/g; in the experiment on Helicoverpa assulta [10] it was 27.2 µg/g; in the experiment with Helicoverpa assulta [11], 673 µg/g. Moreover, the LD50 turned out to be 4.62 mg/kg in the experiment with Helicoverpa assulta [6] (Helicoverpa assulta, HB2, 48 h); 227 mg/kg in the experiment on Helicoverpa assulta [9] (Helicoverpa assulta, YN3, 48 h); 1.94 mg/kg in the experiment with Helicoverpa assulta [10] (Helicoverpa assulta, SD2, 48 h); 213 mg/kg in the experiment on Helicoverpa assulta [11] (Helicoverpa assulta, YN2, 48 h).

For the molecule `CNC(=O)ON=C(C)SC` [METHOMYL], the Ratio came to 28.9 with Helicoverpa assulta [12]; 13.9 in the experiment on Helicoverpa assulta [13]; 37.1 in the experiment on Helicoverpa assulta [14]; 3.93 in the experiment with Helicoverpa assulta [16]; 2.93 with Helicoverpa assulta [17]; 14.4 in the experiment on Helicoverpa assulta [20]. Besides, the Ratio is 9.87 in the experiment on Helicoverpa assulta [21] and 13.7 with Helicoverpa assulta [24]. Moreover, the LD90 in the experiment with Helicoverpa assulta [15] is 55.5 µg/g; with Helicoverpa assulta [18], 84.1 µg/g; in the experiment on Helicoverpa assulta [19], 185 µg/g; in the experiment with Helicoverpa assulta [22], 168 µg/g; in the experiment on Helicoverpa assulta [23], 143 µg/g; with Helicoverpa assulta [25], 137 µg/g. Further, the LD50 was determined as 16.7 mg/kg in the experiment on Helicoverpa assulta [15] (Helicoverpa assulta, GZ4, 48 h); 26.6 mg/kg in the experiment on Helicoverpa assulta [18] (Helicoverpa assulta, YN2, 48 h); 33.3 mg/kg in the experiment on Helicoverpa assulta [19] (Helicoverpa assulta, YN8, 48 h); 53.6 mg/kg in the experiment with Helicoverpa assulta [22] (Helicoverpa assulta, AH1, 48 h); 39 mg/kg in the experiment with Helicoverpa assulta [23] (Helicoverpa assulta, YN7, 48 h); 23.6 mg/kg in the experiment with Helicoverpa assulta [25] (Helicoverpa assulta, FJ3, 48 h).

In the case of `CCOP(=S)(OCC)O/N=C(\C#N)c1ccccc1` [PHOXIM], the LD90 with Helicoverpa assulta [26] came to 72 µg/g; with Helicoverpa assulta [27], 86.5 µg/g; in the experiment on Helicoverpa assulta [28], 819 µg/g; with Helicoverpa assulta [31] it was 65.3 µg/g; with Helicoverpa assulta [32], 83.8 µg/g; with Helicoverpa assulta [34] it was 51.7 µg/g. Further, the LD50 with Helicoverpa assulta [26] (Helicoverpa assulta, YN6, 48 h) was found to be 21.3 mg/kg; in the experiment on Helicoverpa assulta [27] (Helicoverpa assulta, FJ2, 48 h), 22 mg/kg; in the experiment on Helicoverpa assulta [28] (Helicoverpa assulta, AH1, 48 h), 119 mg/kg; in the experiment on Helicoverpa assulta [31] (Helicoverpa assulta, GZ3, 48 h), 20.9 mg/kg; with Helicoverpa assulta [32] (Helicoverpa assulta, YN5, 48 h), 25.7 mg/kg; in the experiment with Helicoverpa assulta [34] (Helicoverpa assulta, GZ4, 48 h) it was 18.4 mg/kg. For the same molecule, the Ratio with Helicoverpa assulta [29] is on record as 14.3; in the experiment on Helicoverpa assulta [30], 7.13; in the experiment with Helicoverpa assulta [33] it was 14.9; in the experiment on Helicoverpa assulta [35], 3.51.
